In US20230242538A1, “PanK Modulators and Methods Using Same” (YALE UNIVERSITY, priority 2020, published 2023):
Converted amounts (≈) assume the structure as drawn. Where two headings read alike, the source gives them in different places.

Columns and labels:
[1] = system: WT cells (Saccharomyces cerevisiae); assay: Liquid growth assay in minimal medium, WT yeast; format: cell-based
Excerpt: (§1) Yeast strains (Saccharomyces cerevisiae) used in this study are JS91.15-23 (MATα his3 leu2 trp1 ura3) and JS91.14-24 (MATa ura3 his3 cab1ts) (Olzhausen, et al., 2009, Curr Genet 55, 163-173). Wild type and mutant strains were propagated either in YPD medium (2% bacto-peptone, 2% D-(+)-glucose and 1% yeast extract) or defined pantothenic acid-free (minimal) medium composed of Yeast Nitrogen Base (MP Biomedicals), supplemented with Complete Supplement Mixture (MP Biomedicals) and all vitamins except pantothenic acid. Where indicated, media were supplemented with appropriate concentrations of pantothenic acid.
(§2) Spotting assay were performed as follows. Pre-cultures of WT and cab1^ts yeast strains were prepared in YPD medium overnight at 30° C. Cells were harvested, washed, and diluted to 10^8 cells in 500 μL sterile water. Subsequent serial dilutions were made and 5 μL of cell suspensions were spotted on YPD agar plates lacking or supplemented with amorolfine 10 ng/mL, amphotericin B 1 μg/mL, fluconazole 10 μg/mL or terbinafine 10 μg/mL to achieve 10^6, 10^5, 10^4, 10^3, 10^2, and 10^1 cells per spot. Plates were incubated at 30° C. or 37° C. and imaged every 24 hours. For liquid assay in 96-well plate format, cells were pre-cultured overnight in liquid YPD medium at 30° C., washed three times in water and diluted to achieve 10^4 cells per well in 150 μL of minimal medium supplemented with 1 μM, 10 μM or 100 μM pantothenic acid and either lacking or supplemented with terbinafine (160 μg/ml). All plates were incubated at 30° C. Optical density measurements were taken with a BioTek SynergyMx microplate reader (OD630) every 8 hours for a total of 96 hours. Relative time to mid-log phase was calculated by first graphing growth curves of the varying concentrations of terbinafine for each concentration of pantothenic acid, and then determining the value at which the untreated curve reached saturation, and dividing it by 2 to represent the mid-log value. Dividing the time to mid-log phase of treated cells by the time to mid-log phase of untreated gave the relative time to mid-log phase.

[2] = system: cab1^ts cells (Saccharomyces cerevisiae); assay: Liquid growth assay in minimal medium, cab1ts yeast; format: cell-based; conditions: for relative time to mid-log phase in the presence vs. absence of the drug: 160 μg/mL terbinafine
Excerpt: as §1, §2

[3] = system: cab1^ts cells (Saccharomyces cerevisiae JS91.14-24); assay: Spotting assay on YPD agar, cab1ts yeast; format: cell-based; conditions: 30° C., 48 hours; amorolfine 10 ng/mL, fluconazole 10 μg/mL, terbinafine 10 μg/mL, amphotericin B 1 μg/mL
Excerpt: as §1, §2

[4] = system: WT cells (Saccharomyces cerevisiae JS91.15-23); assay: Spotting assay on YPD agar, WT yeast; format: cell-based; conditions: 30° C., 48 hours; amorolfine 10 ng/mL, fluconazole 10 μg/mL, terbinafine 10 μg/mL, amphotericin B 1 μg/mL
Excerpt: as §1, §2

[5] = system: WT cells (Saccharomyces cerevisiae); assay: Drug-drug interaction with α-PanAm, checkerboard / isobologram; format: cell-based; conditions: n=2
Experimental: Clin. Microbiol. 43:140-143. The isobologram was produced by solving for the sum 50% fractional inhibitory concentration (ΣFIC50) using the equation: The data from the time-point where the 0 μg/mL terbinafine curve reached saturation was used to generate percent inhibition values, representing growth inhibition based on the concentration of terbinafine. This was done by dividing the value of interest by the untreated (0 μg/mL terbinafine) value, multiplying by 100 to get a percentage, and then subtracting that percentage from 100, representing 100% inhibition. The resulting values were used to create an inhibition curve, using the best fit function to generate an MIC50. […] The resulting MIC50 values were plugged into the ΣFIC50 equation, and the ΣFIC50 values were used to generate the curve.

yeast = conditions: cited from earlier work
[6] = 1 μg/mL amphotericin B, 1 μM PA

Structure (SMILES)	relative time to mid-log phase in the presence vs. absence of the drug [1, 6]	growth of WT cells in liquid medium ([1]; 1 μg/mL amphotericin B, 100 μM PA)	growth of cab1^ts cells in liquid medium [2, 6]	growth of cab1^ts cells on YPD agar in the presence of the drug [3]	growth of WT cells on YPD agar in the presence of the drug [4]	drug-drug interaction pattern with α-PanAm (isobologram) [5]	mid-log phase reached at (time) ([1]; 100 μM PA, single agent: squalene 100 μg/mL or terbinafine 80 μg/mL) [hours]	mid-log phase reached at (time) ([1]; 100 μM PA, terbinafine 80 μg/mL in the presence of 100 μg/mL squalene) [hours]	relative time to mid-log phase in the presence vs. absence of the drug ([1]; 160 μg/mL terbinafine, 1 μM PA)	relative time to mid-log phase in the presence vs. absence of the drug ([1]; 160 μg/mL terbinafine, 10 μM PA)	relative time to mid-log phase in the presence vs. absence of the drug ([1]; 160 μg/mL terbinafine, 100 μM PA)	relative time to mid-log phase in the presence vs. absence of the drug ([2]; 1 μM PA)	relative time to mid-log phase in the presence vs. absence of the drug ([2]; 10 μM PA)	relative time to mid-log phase in the presence vs. absence of the drug ([2]; 100 μM PA)	MIC50 (yeast; medium supplemented with 1 μM pantothenic acid) [µg/mL]	MIC50 (yeast; medium with 100 nM pantothenic acid) [µg/mL]
C[C@@H]1[C@H](O)[C@@H](C)/C=C/C=C/C=C/C=C/C=C/C=C/C=C/[C@H](O[C@@H]2O[C@H](C)[C@@H](O)[C@H](N)[C@@H]2O)C[C@@H]2O[C@](O)(C[C@@H](O)C[C@@H](O)[C@H](O)CC[C@@H](O)C[C@@H](O)CC(=O)O[C@H]1C)C[C@H](O)[C@H]2C(=O)O [amphotericin B]	2.1	not significantly affected	did not grow whatsoever	reduced dramatically	only slightly inhibited	synergism										
CN(C/C=C/C#CC(C)(C)C)Cc1cccc2ccccc12 [terbinafine]				not affected	greatly reduced	antagonism	47	61	1.8	2.1	2.3	1.1	1.4	1.6		
CC(CNC(=O)[C@H](O)C(C)(C)CO)C(=O)NCCc1ccccc1 (stereo partly drawn) [α-PanAm]															~7.6 (≈ 22.6 µM)	~1.9 (≈ 5.65 µM)
